# Data reported in patent US8129521B2, “One pot synthesis of tetrazole derivatives of rapamycin” (Abbott Laboratories, priority 2005, dated 2012).
# Key:
# Format in all cases: physicochemical
# [1] = Zotarolimus stability with various concentrations of BHT
# Experimental: A stability study was carried out to prevent this oxidation using phenolic anti-oxidants and identified BHT as a suitable compound. Tables 3 and 4 present stability data using BHT at various concentrations (% represented w/w) and temperatures.
# [2] = Equilibration studies of pyran and oxepane forms of zotarolimus without buffer (acetonitrile/water, C-18 HPLC); conditions: non-buffered, 66% acetonitrile in water
# Experimental: Studies were also carried out under non-buffered conditions in a solvent mixture of acetonitrile/water. Multiple injections of zotarolimus were performed on a C-18 Altima column (Alltech Associates, Inc.; Deerfield, Ill.) using 66% acetonitrile in water in a non-buffered media. The pyran and oxepane forms were collected. These forms were re-injected on C-18 column to study the equilibrium ratio at various intervals. […] These observations confirmed that zotarolimus exists in an equilibrium mixture of […] pyran (1) vs. oxepane (2) forms.
# [3] = Stability of zotarolimus on storage (potency over time, no anti-oxidant)
# Experimental: Several lots of zotarolimus prepared by the one-pot methods lost significant potency over time. The potency loss was higher at increased temperature, but there was no apparent change in the impurity profile. Table 2 presents the potency of a lot of zotarolimus at various time intervals and temperature conditions. […] This loss was exacerbated in a sealed container when held at 40° C.—from 96.0% to 37.4% over just two months.
compound,measurement,setting,value
"CO[C@H]1C[C@@H]2CC[C@@H](C)[C@@](O)(O2)C(=O)C(=O)N2CCCC[C@H]2C(=O)O[C@H]([C@H](C)C[C@@H]2CC[C@H](n3cnnn3)[C@H](OC)C2)CC(=O)[C@H](C)/C=C(\C)[C@@H](O)[C@@H](OC)C(=O)[C@H](C)C[C@H](C)/C=C/C=C/C=C/1C [zotarolimus, 40-epi-(1-tetrazolyl)-rapamycin]",potency,"[1]; 4° C., BHT 0.0%, 0 weeks",97.2%
same,potency,"[1]; 4° C., BHT 0.0%, 2 weeks",95.2%
same,potency,"[1]; 4° C., BHT 0.0%, 4 weeks",96.4%
same,potency,"[1]; 4° C., BHT 0.0%, 6 weeks",96.6%
same,potency,"[1]; 4° C., BHT 0.0%, 8 weeks",97.5%
same,potency,"[1]; 4° C., BHT 0.0%, 12 weeks",95.9%
same,potency,"[1]; 4° C., BHT 0.1%, 0 weeks",96.7%
same,potency,"[1]; 4° C., BHT 0.1%, 2 weeks",96.7%
same,potency,"[1]; 4° C., BHT 0.1%, 4 weeks",97.3%
same,potency,"[1]; 4° C., BHT 0.1%, 6 weeks",96.8%
same,potency,"[1]; 4° C., BHT 0.1%, 8 weeks",96.9%
same,potency,"[1]; 4° C., BHT 0.1%, 12 weeks",96.8%
same,potency,"[1]; 4° C., BHT 0.2%, 0 weeks",96.3%
same,potency,"[1]; 4° C., BHT 0.2%, 2 weeks",96.7%
same,potency,"[1]; 4° C., BHT 0.2%, 4 weeks",97.5%
same,potency,"[1]; 4° C., BHT 0.2%, 6 weeks",96.9%
same,potency,"[1]; 4° C., BHT 0.2%, 8 weeks",96.9%
same,potency,"[1]; 4° C., BHT 0.2%, 12 weeks",96.8%
same,potency,"[1]; 4° C., BHT 0.5%, 0 weeks",96.5%
same,potency,"[1]; 4° C., BHT 0.5%, 2 weeks",96.5%
same,potency,"[1]; 4° C., BHT 0.5%, 4 weeks",96.2%
same,potency,"[1]; 4° C., BHT 0.5%, 6 weeks",95.7%
same,potency,"[1]; 4° C., BHT 0.5%, 8 weeks",96.9%
same,potency,"[1]; 4° C., BHT 1.0%, 0 weeks",95.9%
same,potency,"[1]; 4° C., BHT 1.0%, 2 weeks",96.3%
same,potency,"[1]; 4° C., BHT 1.0%, 4 weeks",96.6%
same,potency,"[1]; 4° C., BHT 1.0%, 6 weeks",96.1%
same,potency,"[1]; 4° C., BHT 1.0%, 8 weeks",96.9%
same,potency,"[1]; 4° C., BHT 1.0%, 12 weeks",95.5%
same,potency,"[1]; 40° C., BHT (w/w) 0.1%, 0 weeks",96.7%
same,potency,"[1]; 40° C., BHT (w/w) 0.1%, 2 weeks",96.5%
same,potency,"[1]; 40° C., BHT (w/w) 0.1%, 4 weeks",96.9%
same,potency,"[1]; 40° C., BHT (w/w) 0.1%, 6 weeks",96.1%
same,potency,"[1]; 40° C., BHT (w/w) 0.1%, 8 weeks",96.2%
same,potency,"[1]; 40° C., BHT (w/w) 0.1%, 12 weeks",95.6%
same,potency,"[1]; 40° C., BHT (w/w) 0.2%, 0 weeks",96.3%
same,potency,"[1]; 40° C., BHT (w/w) 0.2%, 2 weeks",96.6%
same,potency,"[1]; 40° C., BHT (w/w) 0.2%, 4 weeks",97.2%
same,potency,"[1]; 40° C., BHT (w/w) 0.2%, 6 weeks",97.1%
same,potency,"[1]; 40° C., BHT (w/w) 0.2%, 8 weeks",97.0%
same,potency,"[1]; 40° C., BHT (w/w) 0.5%, 0 weeks",96.5%
same,potency,"[1]; 40° C., BHT (w/w) 0.5%, 2 weeks",96.1%
same,potency,"[1]; 40° C., BHT (w/w) 0.5%, 4 weeks",96.4%
same,potency,"[1]; 40° C., BHT (w/w) 0.5%, 6 weeks",95.7%
same,potency,"[1]; 40° C., BHT (w/w) 0.5%, 8 weeks",96.1%
same,potency,"[1]; 40° C., BHT (w/w) 0.5%, 12 weeks",95.9%
same,potency,"[1]; 40° C., BHT (w/w) 1.0%, 0 weeks",95.9%
same,potency,"[1]; 40° C., BHT (w/w) 1.0%, 2 weeks",95.4%
same,potency,"[1]; 40° C., BHT (w/w) 1.0%, 4 weeks",96.4%
same,potency,"[1]; 40° C., BHT (w/w) 1.0%, 6 weeks",95.6%
same,potency,"[1]; 40° C., BHT (w/w) 1.0%, 8 weeks",96.5%
same,potency,"[1]; 40° C., BHT (w/w) 1.0%, 12 weeks",95.8%
same,time to complete equilibration between two isomers,[2],7 to 8 h
same,potency,"[3]; storage 5° C. (sealed), 1 month after synthesis",95.0%
same,potency,"[3]; storage 5° C. (sealed), 2 months after synthesis",95.4%
same,potency,"[3]; storage 5° C. (sealed), 2 weeks after synthesis",98.2%
same,potency,"[3]; storage 5° C. (sealed), 3 months after synthesis",95.1%
same,potency,"[3]; storage 5° C. (sealed), Initial",95.7%
same,potency,"[3]; storage 25° C. (sealed), 1 month after synthesis",88.8%
same,potency,"[3]; storage 25° C. (sealed), 2 months after synthesis",81.6%
same,potency,"[3]; storage 25° C. (sealed), 2 weeks after synthesis",95.7%
same,potency,"[3]; storage 25° C. (sealed), 3 months after synthesis",69.8%
same,potency,"[3]; storage 25° C. (sealed), Initial",95.1%
same,potency,"[3]; storage 25° C. (unsealed), 1 month after synthesis",91.6%
same,potency,"[3]; storage 25° C. (unsealed), 2 months after synthesis",87.1%
same,potency,"[3]; storage 25° C. (unsealed), 2 weeks after synthesis",98.0%
same,potency,"[3]; storage 25° C. (unsealed), 3 months after synthesis",75.5%
same,potency,"[3]; storage 25° C. (unsealed), Initial",95.5%
same,potency,"[3]; storage 40° C. (sealed), 1 month after synthesis",61.9%
same,potency,"[3]; storage 40° C. (sealed), 2 months after synthesis",37.4%
same,potency,"[3]; storage 40° C. (sealed), 2 weeks after synthesis",81.1%
same,potency,"[3]; storage 40° C. (sealed), Initial",96%
same,stability at room temperature,[3]; without anti-oxidant,unstable at room temperature
